The record followed here is patent US12049642B2, “Corneal endothelial cells with increased cell density and compositions thereof” (Astellas Institute for Regenerative Medicine, priority 2011, dated 2024).

One assay concerns hESC-derived CEC. Briefly: Effect of ROCK inhibitor on harvested and replated hESC-derived CEC. The class given is cell-based, human. On the set-up: key to O/N Confluent: +: “O/N confluent” indicates the confluence of cultured cells after overnight plating, reflecting the degree of cell survival and/or attachment.; −: “O/N confluent” indicates the confluence of cultured cells after overnight plating, reflecting the degree of cell survival and/or attachment; key to Morphology: a high quality polygonal/hexagonal cell shape (“++”); a polygonal/hexagonal shape (“+”); fibroblastic morphology (“−”); key to COL8A1 mRNA / AQP1 mRNA / SLC16A3 mRNA: expression (“+”); non-expression (“−”). The protocol: Expression of COL8A1 and SLC16A3 were elevated relative to hESC (FIGS. 17E-17F).
The harvested cells were further examined for morphology, ability to reestablished a confluent culture, and retaining expression of the CEC markers COL8A1, AQP1, and SLC16A by qPCR. […] Moreover, Maintenance with media containing ROCK inhibitor can help the cells maintain a high quality CEC morphology after harvesting and replating.
Rock inhibitor […] (Wako, cat #253-00513) was dissolved in distilled H2O to make a 10 mM stock solution and sterile filtered and aliquoted. Rock inhibitor aliquot was thawed and added fresh to media daily.
Cornea cells were grown as described in Example 2 and harvested by treatment with 0.25% Trypsin as described in Example 4 and replated, with variations (i.e., inclusion of ROCK inhibitor and/or ASC as described below).
After plating, cells were viewed to identify any morphological changes, and specifically whether they regained their polygonal/hexagonal shape, were a mixed population of polygonal and fibroblastic shape, or if they had turned fibroblastic.
Media was changed daily with fresh Rock inhibitor except for “Pretreatment” and “D1” paradigms. After 1 week of culture, RNA was collected and analyzed by QPCR for changes in COL8A1, AQP1, and SLC16A3 mRNA levels. The efficacy of the Rock inhibitor for harvesting cells were tested between 1-20 microM.
For the “Pretreatment” paradigm, CEC were produced as described in Example 2. The cornea media was removed and replaced with either 10 microM Rock or 10 microM Rock with 0.3 mM ASC-P2 (L ascorbic acid phosphate magnesium salt n-hydrate (Wako, cat #013-19641)) for 1 hour before harvesting. Cells were harvested using 0.25% trypsin as described above, however, no Rock inhibitor was added during harvesting.
For the “Rock overnight” paradigm, CEC were produced as described in Example 2, harvested with 0.25% trypsin as described above, and then plated overnight in the presence of 10 microM Rock inhibitor. The following morning, the media was removed, and no further Rock inhibitor was added to the media.
For the “Rock maintenance” paradigm, CEC were produced as described in Example 2, harvested using 0.25% trypsin as described above, and were maintained in Rock inhibitor added daily to fresh media.
For the “D1” paradigm, CEC were produced as described in Example 2, harvested using 0.25% trypsin as described above, and cultured in presence of Rock inhibitor for 1 week. Cornea cells were then grown for additional week in the presence or absence of Rock inhibitor, to determine whether the ROCK inhibitor contributed to the maintenance of their morphology.

In another assay the test system is CEC. Kind of assay: ANGPL7 included in culture media during CEC differentiation. In kind it is cell-based, human. To be noted: in culture media in combination with DKK2 and PDGFB; methods of Example 1. An excerpt:
Accordingly, ANGPL7 may optionally be used in the differentiation of corneal endothelial cells, for example by its inclusion in the culture during and/or after formation of corneal endothelial cells. ANGPL1-8 may be used in place of or in addition to ANGPL7.

Setting [1] is: D1: factors in media for the first week after plating, thereafter omitted.

On to `C[C@@H](N)[C@H]1CC[C@H](C(=O)Nc2ccncc2)CC1` [Rock, (1R,4r)-4-((R)-1-aminoethyl)-N-(pyridin-4-yl)cyclohexanecarboxamide], for which the “morphology of the hESC CEC trypsinized and replated” value in the assay with hESC-derived CEC (1 μM Rock inhibitor, FIG. 17A) is “variable”; in the assay with hESC-derived CEC (5 μM Rock inhibitor, FIG. 17B), “somewhat more uniform”; with hESC-derived CEC (10 μM Rock inhibitor, FIG. 17C), “uniform and polygonal/hexagonal”; with hESC-derived CEC (20 μM Rock inhibitor, FIG. 17D) it was “uniform and polygonal/hexagonal”. Also, the “SLC16A3 expression compared to PD1T that has not been harvested” value is listed as “unchanged” in the assay with hESC-derived CEC (20 μM Rock inhibitor, QPCR) and “upregulated” in the assay on hESC-derived CEC (1-10 μM Rock inhibitor, QPCR). Besides, the “O/N Confluent” value in the assay with hESC-derived CEC (1 microM (maint.), in media each day after plating) was “+”; in the assay on hESC-derived CEC (5 microM (maint.)), “+”; in the assay with hESC-derived CEC (10 microM (maint.), ASC 0.3 mM where added), “+”; with hESC-derived CEC (20 microM (maint.), ASC 0.3 mM where added) it was “+”; in the assay on hESC-derived CEC (setting [1]), “+”; in the assay on hESC-derived CEC (Pretreat: 10 microM Rock 1 hour before harvesting with 0.25% trypsin, ASC 0.3 mM where added) it was “−”. Besides, the “O/N Confluent” value in the assay with hESC-derived CEC (o/n: plated overnight with 10 microM Rock after harvest, ASC 0.3 mM where added) was “+”. Also, the “AQP1 mRNA” value with hESC-derived CEC (1 microM (maint.), QPCR) is “+”; with hESC-derived CEC (5 microM (maint.), QPCR), “+”; in the assay on hESC-derived CEC (10 microM (maint.), QPCR), “+”; in the assay on hESC-derived CEC (20 microM (maint.), QPCR), “+”; with hESC-derived CEC (Pretreat, QPCR after 1 week), “+”; with hESC-derived CEC (o/n, QPCR after 1 week), “+”. For the same molecule, the “COL8A1 mRNA” value with hESC-derived CEC (1 microM (maint.), QPCR) is given as “+”; with hESC-derived CEC (5 microM (maint.), QPCR), “+”; in the assay on hESC-derived CEC (10 microM (maint.), QPCR), “+”; in the assay with hESC-derived CEC (20 microM (maint.), QPCR) it was “+”; in the assay with hESC-derived CEC (Pretreat, QPCR after 1 week), “+”; with hESC-derived CEC (o/n, QPCR after 1 week), “+”. Moreover, the “SLC16A3 mRNA” value with hESC-derived CEC (1 microM (maint.), QPCR) is recorded as “+”; in the assay with hESC-derived CEC (5 microM (maint.), QPCR), “+”; in the assay with hESC-derived CEC (10 microM (maint.), QPCR) it was “+”; in the assay on hESC-derived CEC (20 microM (maint.), QPCR) it was “+”; in the assay on hESC-derived CEC (Pretreat, QPCR after 1 week), “+”; with hESC-derived CEC (o/n, QPCR after 1 week) it was “+”. Further, the Morphology entry with hESC-derived CEC (1 microM (maint.), after 1 week in culture) was “+”; in the assay with hESC-derived CEC (5 microM (maint.), after 1 week in culture) it was “++”; in the assay on hESC-derived CEC (10 microM (maint.), after 1 week in culture), “++”; in the assay on hESC-derived CEC (20 microM (maint.), after 1 week in culture) it was “++”; in the assay on hESC-derived CEC (setting [1]), “−”; with hESC-derived CEC (Pretreat: 10 microM Rock 1 hour before harvesting, after 1 week in culture) it was “−”. In addition, the Morphology result in the assay with hESC-derived CEC (o/n: plated overnight with 10 microM Rock, after 1 week in culture) was “+”. In the assay with hESC-derived CEC (QPCR, FIG. 17E), the “COL8A1 expression compared to PD1T that has not been harvested” value is “relatively unchanged”. In the assay with hESC-derived CEC (concentrations up to 20 micromolar, FIGS. 17A-17D), the “cell uniformity and polygonal/hexagonal morphology” value was “dose-responsive improvement”.

B1: ANGPL7: Angiopoietin-Like Protein 7, included in the culture media with DKK2 and PDGFB (protein, UniProt O43827 27-346, looked up)
Angiopoietin-related protein 7: QKLSKHKTPAQPQLKAANCCEEVKELKAQVANLSSLLSELNKKQERDWVSVVMQVMELESNSKRMESRLTDAESKYSEMNNQIDIMQLQAAQTVTQTSADAIYDCSSLYQKNYRISGVYKLPPDDFLGSPELEVFCDMETSGGGWTIIQRRKSGLVSFYRDWKQYKQGFGSIRGDFWLGNEHIHRLSRQPTRLRVEMEDWEGNLRYAEYSHFVLGNELNSYRLFLGNYTGNVGNDALQYHNNTAFSTKDKDNDNCLDKCAQLRKGGYWYNCCTDSNLNGVYYRLGEHNKHLDGITWYGWHGSTYSLKRVEMKIRPEDFKP
Consider B1, for which the “packing and morphology of the resulting CEC” value with CEC is “tighter packing and more hexagonal morphology”.
